Assay results taken from patent US20070004634A1 (Novo Nordisk A/S, priority 1998, published 2007).
No end group written: not given here.

Legend:
[1] = molecular target: IGF-1R (Homo sapiens, UniProt P08069); experiment: Phage ELISA, binding of phage clones to IGF-1R (ratio over background); conditions: ratio of IGF-1R divided by ratio of IR
Procedure: (§1) HIT indicates binder; CAND indicates binder candidate; LDH indicates binding to lactate dehydrogenase (negative control); Sp/Irr indicates the ratio of specific binding over non-specific binding.
(§2) Sp/Irr=the ratio of specific binding over non-specific binding; LDH=lactate dehydrogenase (negative control).
(§3) For phage pools, cells from frozen stocks were grown and phage were prepared as described above. For analysis of individual clones, colonies were picked and phage prepared as described above. Subsequent steps were the same for pooled and clonal phage. Microtiter wells were coated and blocked as described above. […] Phage resuspended in MPBS (PBS containing 2% non-fat milk) were added to wells (100 μl/well) and incubated at room temperature for 1 h. The phage solution was then removed, and the wells were washed three times with PBS at room temperature.
(§4) Anti-M13 antibody conjugated to horseradish peroxidase (Pharmacia Biotech) was diluted 1:3000 in MPBS and added to each well (100 μl/well). Incubation was for another hour at room temperature, followed by PBS washes as described. Color was developed by addition of ABTS solution (100 μl/well; Boehringer). […] Data points were averaged after subtraction of appropriate blanks. A clone was considered “positive” if the A405 of the well was ≧2-fold over background.

[2] = molecular target: IR (Homo sapiens, UniProt P06213); experiment: Phage ELISA, binding of phage clones to IR (ratio over background); conditions: ratio of IR divided by ratio of IGF-1R
Procedure: as §1, §2, §3, §4

Substance	Comparisons IGF-1R/IR [1]	Comparisons IR/IGF-1R [2]
AETSAQVGWQRLWSVWPGDHWSTLDPFYHKLSELLRESGA [Peptide B6L-3-G5-IR]	1.4	0.7
AETSVQVGWIRLQSVWPGEHWNTVDPFYHKLSELLRGSGA [Peptide B6L-4-D7-IR]	3.4	0.3
AGSVTSFYDAMEQLVATGTSA [20E2A-3-A4-IGFR]	1.4	0.7
AGTPAQVG*NRLWSVWPGEHWNTVDPFYNKLSELLRESGA (AGTPAQVGXNRLWSVWPGEHWNTVDPFYNKLSELLRESGA; not fully specified; X: residue not identified in the source; ends and bridges not checked) [Peptide B6L-4-A7-IR]	1.8	0.6
AICDAGFHEHFYDWFALQVSDCGRQS [H2CA-2-B11-IGFR]	3.0	0.3
APDPSDFQEIFYDWFVRQVSRMPGGG [H2CA-1-A3-IGFR]	5.1	0.2
AQPCGGFYGLLEQLVGRSVCD [20E2B-4-F10-IGFR]	7.8	0.1
ASSASGFYELLQRLAGLGLEV [20E2B-3-C4-IGFR]	6.2	
AVRATRFDEAFYDWFVRQISDGQGNK [H2CA-4-F6-IGFR]	6.4	0.2
CCTTEMVVMDARDDPFYHKLSELVTGG [Peptide B6Hα-1-B5-IR]	20.5	0.0
CGAKMTGTPNDPFYHKLSELLQRG [Peptide B6Hα-3-E6-IR]	1.9	0.5
CMM.DGFYAGLGCLLTAGEGR (CMMXDGFYAGLGCLLTAGEGR; not fully specified; printed as CMM.DGFYAGLGCLLTAGEGR; X: residue not identified in the source; cysteine pairing not given here) [20E2B-3-C11-IGFR]	7.5	0.1
CSMAAVAEAGDDDDPFYHKLSELCQGS [Peptide B6Hα-3-F1-IR]	1.8	0.5
DRAFYNGLRDLVGAVYGAWD [R20α-4-20C11-IR]	10.3	0.1
DRDFCRFYERLTALVGGQVDGGWPC [20C-3-F6-IGFR]	14.1	0.1
DSVGDNFYQLLESLVGGHGVG [20E2B-3-D6-IGFR]	6.9	0.1
EAASLGSQDRNFYDWFVRQVV [Peptide A6S-2-D11-IR]	2.8	0.4
EGSGFYGYFFSLLGLQG [NNRPγ-4-A9-IR]	7.1	0.1
FFYDCLAALLQGVARYHDLCAVEIT [20C-4-C7-IGFR]	21.8	<0.1
FFYRCLSRLLGGQLGSRLGLSCIGD [20C-3-E4-IGFR]	6.0	0.2

Substance	Comparisons IGF-1R/IR [1]	Comparisons IR/IGF-1R [2]
FRTLAAQHDSFYDWFDRQVSGAAGER [H2CA-3-C11-IGFR]	2.1	0.5
FYDAIDQLVRGSARAGGTRD [R20α-3-20E2-IR]	12.9	0.1
FYVQQWGHENFYDWFDRQVSQSGGAG [H2CA-4-F1-IGFR]	3.8	0.3
GAPVDQLHEDFYDWFVRQVSQAATG [H2CA-2-B2-IGFR]	3.5	0.3
GCAVVEEAERSRGDPFYHKLSELIQGC [Peptide B6Hα-3-E7-IR]	4.3	0.2
GCEVIVEEGDSADPFYHKLSELCQGS [Peptide B6Hα-2-D1-IR]	4.2	0.2
GCITAENGAGDPFYHKLSELGGCS [Peptide B6Hα-1-B3-IR]	2.9	0.3
GCVVEWQKWHGASDPFYHKLSELGGCS [B6Hα-3-F10-IR]	4.6	0.2
GFREGNFYEWFQAQVT [Peptide E4Dα-4-H2-IR]	4.1	0.2
GFREGSFYDWFQAQVT [E4Dα-2-D11-IR]	3.4	0.3
GGTEVDFYRALERLVRGQLGL [20E2B-3-D8-IGFR]	11.3	0.1
GGTKAVAKVGTRDDPFYHKLSELLQGS [Peptide B6Hα-4-G8-IR]	3.6	0.3
GHYFGSFYDAIDQLVAGMLPG [20E2A-3-A3-IGFR]	1.9	0.5
GIISQSCPESFYDWFAGQVSDPWWCW [H2CA-4-G9-IGFR]	16.0	0.1
GLDHSDAVGVHLGFAWPAQARGRWEAGGLEDTWAGYDWL [40F-4-B1-IGFR]	13.1	0.1
GNGDGMFYQLLSLLVGRDMHV [20E2B-3-C2-IGFR]	13.8	0.1
GRTMAVMAAGGPDDPFYHKLSELVQGG [Peptide B6Hα-2-D6-IR]	4.4	0.2
GVRAMSFYDALVSVLGLGPSG [20E2B-1-A6-IGFR]	16.8	0.1
HLADGQFHEKFYDWFERQISSRCNDC [H2CA-3-E11-IGFR]	2.2	0.5
ICTGQGFYQVLCGLLRGTSAR [20E2B-2-B3-IGFR]	7.4	0.1

Substance	Comparisons IGF-1R/IR [1]	Comparisons IR/IGF-1R [2]
IIGGFYSYFNSVLRLGT [NNRPγ-4-A1-IR]	6.0	0.2
IQQELTFYDLLHRLVRSELGS [20E2B-3-D2-IGFR]	11.7	0.1
KLHNLMFYYGLQRLVWGAGLG [20E2B-4-H3-IGFR]	13.9	0.1
LGVTDGFYAALGYLIHGVGQF [20E2B-3-D11-IGFR]	7.6	0.1
LGYQEPFQQNFYDWFVRQVSGAENAG [H2CA-3-E8-IGFR]	2.9	0.3
LKDGFYDYFWQRLHLGS [NNRPγ-4-B11-IR]	15.5	0.1
LRIANLFYQRLWDLAFGGGG [20E2B-3-E8-IFGR]	11.1	0.1
LRRQAPVEENFYDWFVRQVSGDRVGG [H2CA-3-D7-IGFR]	3.7	0.3
LSCLAYSRHGIWRPSTDLGLGRSVGEGSVSTRWRGYDWFE [40F-4-D1-IGFR]	13.1	0.1
LSSDGQFYRALNLLLQGSAGR [20E2B-2-B7-IGFR]	6.7	0.1
LSVALSFYDALGQLVAGEGRW [20E2A-3-A12-IGFR]	3.9	0.3
MMVVDGFYDALHQLVVAQSLG [20E2A-3-D10-IGFR]	3.9	0.3
MNVFVSFYDAIDQLVCQRIGC [20E2A-4-G11-IGFR]	2.6	0.4
NSRDGGFYLQLERLLGFPVTG [20E2B-3-D4-IGFR]	9.6	0.1
NYRRQVFNGNFYDWFDRQVFSLVTPG [H2CA-3-D8-IGFR]	4.0	0.3
PAGPCGFYCGLGLLLHGDQSP [20E2B-4-H8-IGFR]	5.9	0.2
PDLHKGFYAQLAQLIRGQLLS [20E2B-3-E3-IGFR]	13.1	0.1
PGTDLGFYQALRCVVIQGACD [20E2B-2-B2-IGFR]	8.1	0.1
PPLASDLDVQFYGWFVQQVSPPGRGG [H2CA-2-B3-IGFR]	3.6	0.3
RGCNDDGGKGWSDDPFYHKLSELICGG [Peptide B6Hα-1-A2-IR]	14.6	
